Experimental data published in publication PMC3397443, “Sinularones A–I, New Cyclopentenone and Butenolide Derivatives from a Marine Soft Coral Sinularia sp. and Their Antifouling Activity” (Marine Drugs, 2012).
Values after ≈ are worked out from the molar mass of the structure shown. Like-named read-outs stand apart in the source and are kept apart here.

Key:
[1] = test system: larvae of the barnacle Balanus amphitrite; assay: Larval settlement bioassay (antifouling activity); format: in vivo; details: for EC50: Amphibalanus amphitrite, read-out: Balanus amphitrite Larvae EC50
Method: (§1) All compounds were tested for their cytotoxicity against a panel of tumor cell lines including human ovarian carcinoma A2780, human lung adenocarcinoma A549, human gastric carcinoma BGC823, human hepatoma Bel7402, and human colonic carcinoma HCT-8. […] In order to detect whether these compounds play a role for ecological functions, the test for antifouling activity against the larvae of the barnacle Balanus amphitrite was performed. […] A primary discussion of structure-activity relationship implied that α,β-unsaturated 2,3-dimethyl-γ-lactone is a functional unit for anti-barnacle.
(§2) Adults of the barnacle Balanus amphitrite Darwin were exposed to air for more than 6 h, and then were placed in a container filled with fresh 0.22 µm filtered sea water (FSW) to release nauplii. The collected nauplii were reared to cyprid stage according to the method described by Thiyagarajan et al.. When kept at 26–28 °C and fed with Chaetoceros gracilis, larvae developed to cyprids within four days. Fresh cyprids were used in the tests.

[2] = Toxicity against barnacle larvae (LC50); details: Balanus amphitrite (barnacle), in vivo; concentration required to kill 50% of larvae of a tested population
Method: as §1, §2

[3] = concentration where 50% of larval population was inhibited to settle compared to control, cyprids

Structure (SMILES)	EC50 [1, 3]	LC50 [2]	EC50 [1]	antifouling activity (in words) ([1]; against the barnacle Balanus amphitrite)
CC(=O)CC/C=C(/C)C[C@@H]1CC(C)(C)CC1=O [Compound 1, Sinularone A]	13.9 µg/mL (≈ 58.6 µM)	> 50 µg/mL		
CCCCC[C@@]1(O)C(C)=C(C)C(=O)[C@H]1CC(=O)OCC [Compound 2, Sinularone B]	23.5 µg/mL (≈ 83.2 µM)	> 50 µg/mL		
CCOC(=O)CC[C@]1(O)OC(=O)C(C)=C1C [Compound 7, Sinularone G]	18.6 µg/mL (≈ 81.7 µM)	> 50 µg/mL		
CCO[C@@]1(CCC(=O)OC)OC(=O)C(C)=C1C [Compound 8, Sinularone H]	21.4 µg/mL (≈ 88.3 µM)	> 50 µg/mL		
CCOC(=O)CCCCCCCCCCCC[C@]1(O)OC(=O)C(C)=C1C [Compound 9, Sinularone I]	12.6 µg/mL (≈ 34.1 µM)	> 50 µg/mL		
CCCCC[C@]1(O)OC(=O)C(C)=C1C [Compound 10, (S)-4-hydroxy-2,3-dimethyl-4-pentyl-γ-lactone]		> 50 µg/mL	3.84 µg/mL (≈ 19.4 µM)	the most active
